Test results reported in PMC5573404, “An aldo-keto reductase is responsible for Fusarium toxin-degrading activity in a soil Sphingomonas strain” (Scientific Reports, 2017).

System: AKR18A1
Test: HPLC substrate decrease, Michaelis-Menten fit
Assay type: biochemical, Sphingomonas sp. S3-4
Details: 45 °C

SMILES | Km (reduction of 3-oxo-DON, sodium phosphate pH 7.0, printed unit mM is doubtful, probably a misprint for μM (assays use 0.2 mM NADH)) | Km (oxidation of DON, glycine-NaOH pH 10.6)
NC(=O)C1=CN([C@@H]2O[C@H](COP(=O)(O)OP(=O)(O)OC[C@H]3O[C@@H](n4cnc5c(N)ncnc54)[C@H](O)[C@@H]3O)[C@@H](O)[C@H]2O)C=CC1 [NADH] | 78 ± 28 mM | –
NC(=O)c1ccc[n+]([C@@H]2O[C@H](COP(=O)(O)OP(=O)(O)OC[C@H]3O[C@@H](n4cnc5c(N)ncnc54)[C@H](OP(=O)(O)O)[C@@H]3O)[C@@H](O)[C@H]2O)c1 [NADP^+] | – | 0.48 ± 0.07 mM
